Drawing on ChEMBL document CHEMBL5442219, this text covers inhibition for 2 molecules.

Common to all, as to settings: Compound concentration 10 µM
Test [1] has as its target T1, Alpha-1B adrenergic receptor (Homo sapiens) (UniProt P35368).
T1 sequence (whole entry): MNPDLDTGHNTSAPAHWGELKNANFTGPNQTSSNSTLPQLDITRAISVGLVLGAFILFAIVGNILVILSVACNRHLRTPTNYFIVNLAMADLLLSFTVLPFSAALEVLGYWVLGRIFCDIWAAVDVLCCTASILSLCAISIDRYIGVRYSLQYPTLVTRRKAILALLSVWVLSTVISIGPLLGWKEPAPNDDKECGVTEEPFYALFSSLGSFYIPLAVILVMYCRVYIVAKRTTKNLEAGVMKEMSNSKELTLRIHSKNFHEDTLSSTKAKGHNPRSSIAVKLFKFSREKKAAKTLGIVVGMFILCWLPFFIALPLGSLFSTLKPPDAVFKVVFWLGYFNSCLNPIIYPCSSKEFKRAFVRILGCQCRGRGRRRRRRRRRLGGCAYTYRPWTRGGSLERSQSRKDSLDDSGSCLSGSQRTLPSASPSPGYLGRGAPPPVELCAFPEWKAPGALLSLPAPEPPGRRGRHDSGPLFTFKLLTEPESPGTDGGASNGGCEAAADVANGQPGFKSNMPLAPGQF

The target in test [2] is T2, Alpha-2B adrenergic receptor (Homo sapiens) (UniProt P18089).
T2 sequence (whole entry): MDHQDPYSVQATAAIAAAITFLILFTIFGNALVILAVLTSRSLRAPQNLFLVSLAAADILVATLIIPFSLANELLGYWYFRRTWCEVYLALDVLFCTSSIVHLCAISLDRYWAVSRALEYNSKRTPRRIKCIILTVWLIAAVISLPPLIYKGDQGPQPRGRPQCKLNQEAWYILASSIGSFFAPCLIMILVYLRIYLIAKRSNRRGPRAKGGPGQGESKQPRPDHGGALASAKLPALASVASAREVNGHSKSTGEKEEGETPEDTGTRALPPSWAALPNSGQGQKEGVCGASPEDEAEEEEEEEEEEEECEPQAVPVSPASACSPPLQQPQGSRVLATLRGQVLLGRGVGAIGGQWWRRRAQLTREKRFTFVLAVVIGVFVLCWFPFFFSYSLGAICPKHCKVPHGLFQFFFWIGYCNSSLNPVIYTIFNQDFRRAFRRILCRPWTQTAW

Test [3] deals with T3, Alpha-2C adrenergic receptor (Homo sapiens) (UniProt P18825).
T3 sequence (whole entry): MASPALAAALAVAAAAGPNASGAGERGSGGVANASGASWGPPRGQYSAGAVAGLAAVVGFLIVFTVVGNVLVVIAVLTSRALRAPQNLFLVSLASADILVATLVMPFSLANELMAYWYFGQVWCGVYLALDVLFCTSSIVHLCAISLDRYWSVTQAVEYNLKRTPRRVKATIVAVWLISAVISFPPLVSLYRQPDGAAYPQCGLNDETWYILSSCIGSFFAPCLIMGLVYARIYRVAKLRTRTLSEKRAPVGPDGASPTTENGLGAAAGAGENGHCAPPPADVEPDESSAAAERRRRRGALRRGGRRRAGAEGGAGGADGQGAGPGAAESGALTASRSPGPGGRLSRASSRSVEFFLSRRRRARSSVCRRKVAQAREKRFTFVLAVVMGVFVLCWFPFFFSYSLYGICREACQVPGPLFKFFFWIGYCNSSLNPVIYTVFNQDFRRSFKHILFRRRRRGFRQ

Test [4] addresses Muscarinic acetylcholine receptor M3 (Homo sapiens) (UniProt P20309).
In test [5] the target is D(1A) dopamine receptor (Homo sapiens) (UniProt P21728).
The target in test [6] is D(2) dopamine receptor (Homo sapiens) (UniProt P14416).
Test [7] deals with T4, D(4) dopamine receptor (Homo sapiens) (UniProt P21917).
T4 sequence (whole entry): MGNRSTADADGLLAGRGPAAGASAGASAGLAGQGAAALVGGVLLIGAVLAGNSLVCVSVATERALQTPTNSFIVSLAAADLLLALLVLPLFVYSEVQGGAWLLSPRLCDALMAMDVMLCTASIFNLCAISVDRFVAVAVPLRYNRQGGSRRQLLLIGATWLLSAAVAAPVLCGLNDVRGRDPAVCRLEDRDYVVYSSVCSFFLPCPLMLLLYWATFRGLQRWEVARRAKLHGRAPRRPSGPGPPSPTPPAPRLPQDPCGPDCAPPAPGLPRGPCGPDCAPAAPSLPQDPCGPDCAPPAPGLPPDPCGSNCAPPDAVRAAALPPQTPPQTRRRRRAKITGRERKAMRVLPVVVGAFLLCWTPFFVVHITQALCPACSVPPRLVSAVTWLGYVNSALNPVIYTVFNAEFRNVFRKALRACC

For test [8], the target named is Histamine H4 receptor (Homo sapiens) (UniProt Q9H3N8).
In test [9] the target is T5, 5-hydroxytryptamine receptor 3A (Homo sapiens) (UniProt P46098).
T5 sequence (whole entry): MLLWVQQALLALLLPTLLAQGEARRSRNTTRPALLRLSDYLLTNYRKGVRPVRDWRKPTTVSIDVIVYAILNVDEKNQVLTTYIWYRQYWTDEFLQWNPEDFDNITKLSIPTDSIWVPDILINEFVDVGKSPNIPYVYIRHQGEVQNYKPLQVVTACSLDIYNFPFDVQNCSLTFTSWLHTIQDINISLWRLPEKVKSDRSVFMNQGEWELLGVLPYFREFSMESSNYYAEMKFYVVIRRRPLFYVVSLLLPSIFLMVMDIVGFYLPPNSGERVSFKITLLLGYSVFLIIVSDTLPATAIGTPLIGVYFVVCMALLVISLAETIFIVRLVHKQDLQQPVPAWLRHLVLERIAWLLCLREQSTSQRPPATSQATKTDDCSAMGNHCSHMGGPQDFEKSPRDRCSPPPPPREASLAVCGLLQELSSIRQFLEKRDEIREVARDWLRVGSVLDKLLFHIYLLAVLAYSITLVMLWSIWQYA

Test [10] addresses Sodium-dependent noradrenaline transporter (Homo sapiens) (UniProt P23975).
Test [11] deals with Sigma intracellular receptor 2 (Homo sapiens) (UniProt Q5BJF2).
Test [12] deals with Translocator protein (Homo sapiens) (UniProt P30536).
The target of test [13] is Beta-3 adrenergic receptor (Homo sapiens) (UniProt P13945).

Structures are written as SMILES.

Sequence of Muscarinic acetylcholine receptor M3 (Homo sapiens) (P20309 whole entry, looked up): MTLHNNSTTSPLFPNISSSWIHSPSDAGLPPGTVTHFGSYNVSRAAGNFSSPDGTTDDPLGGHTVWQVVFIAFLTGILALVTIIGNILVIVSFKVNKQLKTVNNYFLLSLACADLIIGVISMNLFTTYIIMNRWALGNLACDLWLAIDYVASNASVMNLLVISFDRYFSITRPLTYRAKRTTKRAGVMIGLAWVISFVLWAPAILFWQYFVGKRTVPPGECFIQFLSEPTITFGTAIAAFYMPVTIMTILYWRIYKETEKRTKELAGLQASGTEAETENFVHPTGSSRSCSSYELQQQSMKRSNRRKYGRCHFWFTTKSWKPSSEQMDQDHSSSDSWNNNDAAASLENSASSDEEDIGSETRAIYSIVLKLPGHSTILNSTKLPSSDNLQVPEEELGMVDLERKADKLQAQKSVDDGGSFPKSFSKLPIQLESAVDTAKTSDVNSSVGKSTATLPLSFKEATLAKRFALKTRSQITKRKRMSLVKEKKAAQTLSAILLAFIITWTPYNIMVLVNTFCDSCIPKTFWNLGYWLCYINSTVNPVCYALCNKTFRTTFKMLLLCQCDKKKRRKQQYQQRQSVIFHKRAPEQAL
Sequence of D(1A) dopamine receptor (Homo sapiens) (P21728 whole entry): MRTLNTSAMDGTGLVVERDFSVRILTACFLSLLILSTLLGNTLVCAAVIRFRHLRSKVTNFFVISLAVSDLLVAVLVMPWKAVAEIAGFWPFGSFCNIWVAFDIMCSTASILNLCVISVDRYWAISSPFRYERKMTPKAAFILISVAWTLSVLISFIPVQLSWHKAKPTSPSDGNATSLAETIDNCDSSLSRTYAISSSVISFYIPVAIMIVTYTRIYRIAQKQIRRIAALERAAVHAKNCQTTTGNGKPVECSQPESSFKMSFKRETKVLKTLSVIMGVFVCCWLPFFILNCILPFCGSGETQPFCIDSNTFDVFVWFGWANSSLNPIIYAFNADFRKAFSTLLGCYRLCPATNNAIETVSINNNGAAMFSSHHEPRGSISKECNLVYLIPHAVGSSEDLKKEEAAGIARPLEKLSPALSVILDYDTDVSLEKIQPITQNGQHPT
Sequence of Beta-3 adrenergic receptor (Homo sapiens) (P13945 whole entry, looked up): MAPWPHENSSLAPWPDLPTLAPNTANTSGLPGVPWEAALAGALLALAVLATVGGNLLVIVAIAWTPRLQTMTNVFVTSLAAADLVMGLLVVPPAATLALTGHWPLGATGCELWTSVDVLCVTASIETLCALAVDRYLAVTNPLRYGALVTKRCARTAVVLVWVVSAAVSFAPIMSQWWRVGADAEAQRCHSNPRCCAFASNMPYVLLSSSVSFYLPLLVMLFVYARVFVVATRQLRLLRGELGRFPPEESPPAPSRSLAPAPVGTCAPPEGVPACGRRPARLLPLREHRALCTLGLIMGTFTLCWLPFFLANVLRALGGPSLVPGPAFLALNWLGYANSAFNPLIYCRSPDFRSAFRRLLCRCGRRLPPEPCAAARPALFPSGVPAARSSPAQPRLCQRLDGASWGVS
Sequence of Translocator protein (Homo sapiens) (P30536 whole entry): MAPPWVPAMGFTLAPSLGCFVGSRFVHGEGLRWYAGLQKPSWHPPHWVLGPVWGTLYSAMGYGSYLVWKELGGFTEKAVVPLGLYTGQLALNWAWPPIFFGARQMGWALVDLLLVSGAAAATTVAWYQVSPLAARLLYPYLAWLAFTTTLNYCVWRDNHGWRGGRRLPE
Sequence of Sodium-dependent noradrenaline transporter (Homo sapiens) (P23975 whole entry): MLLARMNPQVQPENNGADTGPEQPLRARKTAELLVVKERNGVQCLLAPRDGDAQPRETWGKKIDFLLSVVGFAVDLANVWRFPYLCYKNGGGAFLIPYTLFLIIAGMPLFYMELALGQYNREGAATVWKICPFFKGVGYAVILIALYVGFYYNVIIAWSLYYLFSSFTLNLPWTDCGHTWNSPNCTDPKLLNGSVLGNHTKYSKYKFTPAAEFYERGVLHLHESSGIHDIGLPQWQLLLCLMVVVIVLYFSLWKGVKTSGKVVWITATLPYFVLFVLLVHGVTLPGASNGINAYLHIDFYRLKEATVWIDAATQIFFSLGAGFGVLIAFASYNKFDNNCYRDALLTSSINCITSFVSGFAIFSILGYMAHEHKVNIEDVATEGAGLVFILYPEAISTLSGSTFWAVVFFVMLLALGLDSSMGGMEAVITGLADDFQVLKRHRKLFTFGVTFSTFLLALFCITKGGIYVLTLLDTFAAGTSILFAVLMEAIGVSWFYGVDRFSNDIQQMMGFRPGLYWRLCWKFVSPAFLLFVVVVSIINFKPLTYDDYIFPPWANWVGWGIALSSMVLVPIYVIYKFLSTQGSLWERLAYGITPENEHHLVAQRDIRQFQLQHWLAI
Sequence of Histamine H4 receptor (Homo sapiens) (Q9H3N8 whole entry): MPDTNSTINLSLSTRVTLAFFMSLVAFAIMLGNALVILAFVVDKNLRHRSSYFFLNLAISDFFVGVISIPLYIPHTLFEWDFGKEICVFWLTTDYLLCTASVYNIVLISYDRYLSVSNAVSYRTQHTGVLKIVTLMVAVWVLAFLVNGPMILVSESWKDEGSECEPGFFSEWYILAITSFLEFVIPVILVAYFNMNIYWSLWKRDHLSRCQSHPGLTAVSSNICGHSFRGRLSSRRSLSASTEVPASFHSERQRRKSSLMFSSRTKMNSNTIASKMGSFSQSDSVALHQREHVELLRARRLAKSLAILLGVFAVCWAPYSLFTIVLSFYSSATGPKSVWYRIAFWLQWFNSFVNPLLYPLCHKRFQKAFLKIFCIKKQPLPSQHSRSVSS
Sequence of Sigma intracellular receptor 2 (Homo sapiens) (Q5BJF2 whole entry): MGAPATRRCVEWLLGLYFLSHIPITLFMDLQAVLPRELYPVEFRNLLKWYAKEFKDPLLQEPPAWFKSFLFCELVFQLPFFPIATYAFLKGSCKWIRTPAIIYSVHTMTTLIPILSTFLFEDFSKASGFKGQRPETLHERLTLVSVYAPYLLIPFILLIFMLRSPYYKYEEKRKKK
Sequence of D(2) dopamine receptor (Homo sapiens) (P14416 whole entry): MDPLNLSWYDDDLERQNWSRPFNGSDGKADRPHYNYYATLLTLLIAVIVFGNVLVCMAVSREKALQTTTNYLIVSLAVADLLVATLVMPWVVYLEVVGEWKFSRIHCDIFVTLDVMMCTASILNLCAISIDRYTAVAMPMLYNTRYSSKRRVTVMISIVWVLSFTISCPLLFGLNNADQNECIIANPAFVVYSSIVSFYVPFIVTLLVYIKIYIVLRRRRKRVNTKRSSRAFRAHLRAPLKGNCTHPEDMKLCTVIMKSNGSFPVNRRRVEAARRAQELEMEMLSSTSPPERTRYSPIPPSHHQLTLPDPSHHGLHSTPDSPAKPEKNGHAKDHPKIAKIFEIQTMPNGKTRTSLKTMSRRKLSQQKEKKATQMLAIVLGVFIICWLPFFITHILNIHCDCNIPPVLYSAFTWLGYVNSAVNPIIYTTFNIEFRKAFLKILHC

What is called inhibition is the change of the read-out against control, counted positive when it falls. As to `CCc1ccc(OCc2ccccc2C(=O)Nc2ccc3nc(C)cc(N)c3c2)cc1`, the inhibition is 60.5% in test [1]; 55.2% in test [2]; 40.9% in test [3]; 11.1% in test [4]; 47.8% in test [5]; 36.2% in [6]. Moreover, the inhibition was 21.3% in test [7]; 36.6% in test [8]; 24.7% in [9]; 87.4% in test [10]; 91.7% in test [11]; 54.7% in [12]. Also, the inhibition in test [13] is 68.6%.
For `Clc1cccc(COc2cncc(N3CCNCC3)n2)c1`, the inhibition was 26.2% in [1]; 36.1% in test [2]; 36.9% in [3]; 82.1% in test [4]; 29.3% in test [5]; 3.43% in test [6]. The inhibition in test [7] is 42.2%; in test [8] it was 49.1%; in [9], 97.8%; in test [10] it was 20.2%; in test [11] it was 86.4%; in [12], 36.1%. Also, the inhibition in [13] is 28.7%.
